Results taken from patent US20260272936A1, “TREATMENT OF CANCER WITH A PARG INHIBITOR” (858 Therapeutics, Inc., priority 2023, published 2026).

What was measured:
HCC1954 cells = assay: 6-day growth assay, Compound 1 in combination with exatecan; assay type: cell-based; settings: Homo sapiens
Description: (§1) The activity of Compound 1 in combination with exatecan was evaluated in the HCC1954, HCC1806, and GP2D cancer cell lines in a 6-day growth assay. HCC1954 (Cat #CRL-2338) and HCC1806 (Cat #CRL-2335) cells were obtained from American Type Culture Collection (ATCC) and maintained in ATCC modified RPMI (Cat #30-2001)+10% FBS (Cat #A3160502)+1% penicillin/streptomycin (Cat #15140-122) in a humidified incubator at 37° C., 5% CO2. GP2D cells were obtained from ECACC (Cat #95090714-1VL) and maintained in DMEM+GlutaMAX (Cat #10566-016)+10% FBS (Cat #A3160502)+1% penicillin/streptomycin (Cat #15140-122). Cells were seeded at 2,500 cells/well (HCC1954 and GP2D) or 2,000 cells/well (HCC1806) in 100 μL of growth medium in a 96-well plate (Corning costar Cat #3603) and allowed to adhere overnight at 37° C. with 5% CO2. The next day, serial dilutions of Compound 1 and exatecan were prepared and added to the corresponding wells of a 96-well plate. A solution of 0.1% DMSO in medium was used as the negative control. Cells were incubated with compound for 6 days at 37° C. with 5% CO2, then fixed, stained, and counted as described in Example 3. Concentration response-curves and IC50 values were generated by non-linear regression analysis using a 4-parameter variable slope fit in GraphPad Prism 10 software. Potential synergy between Compound 1 and exatecan was assessed using Zero interaction potency (ZIP), Highest Single Agent (HSA), Bliss, and Loewe synergy models to find the most synergistic area score, where scores >10 indicate that the interaction between the two drugs is likely to be synergistic (Ianevski et al. 2020).

HCC1806 cells = assay: as above; assay type: cell-based; settings: Homo sapiens
Description: as §1

[1] = test system: Resistant SNU601 cells (acquired niraparib resistance); assay: 6-day proliferation, nuclei count, PARP inhibitor resistant line; assay type: cell-based, human
Description: The SNU601 gastric carcinoma cell line (Creative Bioarray, Cat #CSC-C9686L) was cultured in RPMI media containing glutamax, 10% fetal bovine serum, and 1% penicillin/streptomycin at 37° C., 5% CO2. To generate a PARP inhibitor resistant cell line, an IC20 concentration of niraparib was added to the culture media.
Compound 1 and the PARP inhibitor niraparib were tested in cellular proliferation assays using the parental SNU601 cell line and the SNU601 cell line with acquired PARPi resistance. For the proliferation assays, cells were plated in 96-well plates (Corning costar 3603) at 2500-5000 cells/well in normal growth media. The next day, compound dissolved in vehicle (0.5% DMSO in media) was added to generate a 7- to 10-point concentration curve with half-log dilutions and starting concentrations of 10 or 31.6 μM. After 6 days of compound or vehicle treatment, the cells were fixed with a solution of 8% paraformaldehyde, 0.2% Triton X-100 for 20 minutes. After washing the cells with PBS, the nuclei were stained by the addition of DAPI (4′,6-diamidino-2-phenylindole) and incubation for 20 minutes. The number of nuclei in each well were counted by imaging the plates on an Image Xpress Pico automated cell imaging system (Molecular Devices). The percent proliferation after treatment was determined by normalizing the number of nuclei in treated wells to the vehicle-treated wells. Concentration-response-curves and IC50 values for percent inhibition of proliferation were generated by non-linear regression analysis using GraphPad Prism 10 software.

[2] = test system: T025OV ovarian cancer patient-derived xenograft; assay: T025OV ovarian cancer PDX model; assay type: in vivo, NOG mice; settings: 75 mg/kg BID, 50 days
Description: tissue from a treatment naïve patient with Stage 1 serous ovarian cancer was obtained from Discovery Life Sciences (Huntsville, AL, Case ID #200000835) and was expanded by subcutaneous implantation into female NOG mice. For tumor development, mice were inoculated subcutaneously on the right flank with isolated […] cells at 1×10^6 viable cells per mouse in 0.2 mL of DPBS mixed with Matrigel® Growth Factor Reduced Basement Membrane Matrix (1:1 ratio) (Corning®, Tewksbury, MA, USA, Cat #356237). Groups were established and drug treatment initiated when the mean tumor volume reached approximately 140-150 mm^3. […] For all studies, tumor volumes and body weights were measured twice weekly. […] Statistical analysis of end-of-study mean tumor volumes for the […] model was performed using an unpaired t-test with Welch's correction.

[2H]C([2H])(c1cnn(C)c1)N1C(=O)c2cc(S(=O)(=O)NC3(C)CC3)ccc2N2C1=NC[C@H]2C [Compound 1, (R)-1-methyl-4-((1-methyl-1H-pyrazol-4-yl)methyl-d2)-N-(1-methylcyclopropyl)-5-oxo-1,2,4,5-tetrahydroimidazo[1,2-a]quinazoline-7-sulfonamide]
IC50 (HCC1954 cells; exatecan 0.001 nM): 6900 nM
IC50 (HCC1954 cells; exatecan 0.01 nM): 7200 nM
IC50 (HCC1954 cells; exatecan 0.03 nM): 6600 nM
IC50 (HCC1954 cells; exatecan 0.1 nM): 5200 nM
IC50 (HCC1954 cells; exatecan 0.3 nM): 900 nM
IC50 (HCC1806 cells; exatecan 0.001 nM): 1900 nM
IC50 (HCC1806 cells; exatecan 0.01 nM): 1500 nM
IC50 (HCC1806 cells; exatecan 0.03 nM): 1200 nM
IC50 (HCC1806 cells; exatecan 0.1 nM): 300 nM
better potency than niraparib in PARPi resistant SNU601 [1]: 10 ×
IC50 ([1]; Homo sapiens, SNU-601, 144 h, read-out: IC50 inhibition of proliferation): 320 nM
mean decrease in body weight [2]: 4.6%
